Source: patent publication US20110257130A1 (priority 2008, published 2011)
pIC50: −log10 of the molar value. Like-named read-outs stand apart in the source and are kept apart here.

How the values were obtained:
[1] = target: Angiotensin Converting Enzyme (ACE) (UniProt P12822); assay: fluorimetric ACE assay with HHL substrate, 96-well format; type: biochemical; details: for reduction of ACE activity (formation of L-histidyl-L-leucine): compound incubated with enzyme at 37° C. for 30 min
Description: To determine whether the compounds of the presently-disclosed subject matter were capable of reducing the enzymatic activity of Angiotensin Converting Enzyme (ACE), an ACE assay was carried out according to the standard protocols (see, e.g., Schwager, et al. A high-throughput fluorimetric assay for angiotensin I-converting enzyme, Nature Protocols, 2006; 1 (4): 1961-1964, which is incorporated herein by this reference). The ACE assay involved a fluorimetric procedure in which the substrate hippury-L-histidyl-L-leucine (HHL) was used, and the fluorescent adduct of the enzyme-catalyzed product L-histidyl-L-leucine was quantified fluorimetrically. […] The results from the assay were analyzed in a 96-well plate reader with each concentration measured in triplicate.
Briefly, in a total of 250 μL assay volume, 10 μL of ACE enzyme (Sigma Chemical Co., St. Louis, Mo.) and 10 μL of either 1-(6,8-dimercaptooctanyl)pyrrolidine-2-carboxylic acid or prolyl lipoic acid (Formula (III) was added. Both compounds were incubated with enzyme at 37° C. for 30 min. The ACE substrate HHL, 6 μL in buffer, was then added to each well followed by incubation at 45° C. for 30 min. 170 μL of 0.3M sodium hydroxide solution was added to above solution followed by the addition of phalaldehyde solution in methanol. The mixture was then allowed to shake for 5 min. This step was followed by the addition of 32 μL of 2N hydrochloric acid to each well and subsequent measurement of the fluorescence at an excitation wavelength of 360 nm and an emission wavelength of 480 nm. Three controls were used to compare the readings, with the controls including wells without the enzyme, wells without the compounds, and wells without the HHL enzymatic substrate.
To further examine the IC50 value in relation to the absolute amounts of thiol groups of the 1-(6,8-dimercaptooctanyl)pyrrolidine-2-carboxylic acid compound, however, the amount of thiol groups in the reaction mixtures was also measured according to Ellman's method (see, e.g. Simpson R J, Estimation of free thiols and disulfide bonds using Ellman's reagent, CSHL Press, Cold Spring Harbor, N.Y., 2003; and, Ellman G L, Tissue sulfhydral groups, Arch. Biochem. Biophys., 1959; 82: 70-77, each of which are incorporated herein by this reference). […] The TNB^2− can then be quantified in a spectrophotometer by measuring the absorbance of visible light at 412 nm, using an extinction coefficient of 14,150M^−1 cm^−1 for dilute buffer solutions, and a coefficient of 13,700 M^−1 cm^−1 for high salt concentrations, such as 6 M guanidinium hydrochloride or 8 M urea. […] The absorbance was measured at 412 nm. […]

[2] = test system: pre-constricted rat aortic segments; assay: vasodilation of phenylephrine pre-constricted aortic rings in myograph; parameters: species or system male Sprague-Dawley Rats; details: for relaxation of pre-constricted rat aortic segments: phenylephrine 0.1 μM pre-constriction, after 4-hour incubation with 44 mM glucose
Description: To determine the effect of lipoic acid and prolyl lipoic acid (Formula (III)) on vasodilation, aortas from male Sprague-Dawley Rats (n=2) were utilized. Briefly, each animal was first sacrificed and their aortas were removed. The aortas were then incubated in phosphate-buffered-saline (PBS) containing 44 mM glucose for 4 hours. Eight 5-mm ring segments of thoracic aorta were then suspended in a myograph chamber filled with a Krebs buffer of the following composition: NaCl, 118.3; KCl, 4.69; CaCl2, 1.87; MgSO4, 1.20; K2HPO4, 1.03; NaHCO3 25.0; and glucose 11.1; all values in mM, pH 7.40. During the following hour, the resting tension was increased to optimize constrictions due to exposure to KCl. The vessel segments were then pre-constricted with phenylephrine (PE; 0.1 μM) and were subjected to prolyl lipoic acid (Formula (III)) or lipoic acid. Vasodilation in the rat aortic rings in response to L-prolyl lipoic acid (1×10^−4 M) or lipoic acid (1×10^−4 M) (both dissolved in aqueous media) was then measured after a 4-hour incubation with glucose (44 mM). Endothelial cell function in the aortic rings was also measured by pre-constricting the aortic rings to the EC50 of phenylephrine and then subjecting the rings to a maximum acetylcholine dose (10^−5M).

[3] = test system: spontaneously hypertensive stroke prone rats (SHRSP); assay: blood pressure by intra-arterial catheter / radio-telemetry in hypertension model; type: in vivo, rat
Excerpt: To determine the effect of prolyl lipoic acid (Formula (III)) in an animal model of hypertension, spontaneously hypertensive stroke prone rats (SHRSP) were first procured from Charles River at the age of 6 weeks (Charles River Laboratories, Wilmington, Mass., U.S.A.). After a period of acclimatization for 4 weeks, the rats were then implanted with intra-arterial catheters in the abdominal aorta along with a radio-telemetry monitoring device to assess systolic blood pressure. Briefly, to implant the radio-telemetry devices, the operative procedure involved anesthetizing the animals with 375 mg/kg of 2,2,2-tribromoethanol (Sigma Chemical Co., St. Louis, Mo.). An incision was then made in the abdomen and the aorta was exposed. A 0.4 mm catheter attached to a combination pressure transducer, transmitter, and battery, all encapsulated in a implantable micro-miniature electronic monitor (PA-C20, Data Sciences International, St. Paul, Minn.), was then inserted.
Following implantation of the radio-telemetry devices, the animals were allowed to recover and the aortic pressure of each animal was monitored continuously. Once the animals sufficiently recovered, the rats then received 50 mg/kg of prolyl lipoic acid, dissolved in aqueous media, in a single dose. The blood pressures were then measured over a period of 12 hours and compared to the previous 12 hour period. […]
During the 6 week experimental period, blood pressure measurements were performed in a sub-group of 4 animals randomized to prolyl lipoic acid by intra-arterial catheter placement in the infra-renal aorta and acute administration of the prolyl lipoic acid prior to administration of drug. Additionally, four SHRSP rats (12 weeks old) were implanted with radio-telemetry transmitters (DataSciences Inc., St. Paul, Minn.) into their abdominal aortas and blood pressure was measured using the DSI system (DataSciences Inc.). In these later experiments, blood pressure was recorded continuously over 24-hour periods and reported as the change in blood pressure in the 12-hour period following the administration of the agent.

[4] = test system: spontaneously hypertensive stroke prone rats (SHRSP); assay: endothelial function by myography of aortic segments after 6 weeks of treatment; type: in vivo, rat; details: 50 mg/kg daily IP, pre-contraction 0.3 μM phenylephrine
Description: (§1) To further examine the effects of prolyl lipoic acid (Formula (III)) on hypertension, the effect of prolyl lipoic acid was examined in spontaneously hypertensive rats over a longer time period. Briefly, spontaneously hypertensive rats (SHRSP rats, 10 weeks of age, n=10/group) were randomized to placebo or prolyl lipoic acid (50 mg/kg) groups for a duration of 6 weeks. The animals were housed 2 to a cage and were given Harlan-Teklad Laboratory Rodent Diet ad libitum (Harlan Laboratories, Indianapolis, Ind.). Prolyl lipoic acid or saline placebo was administered to the rats by daily intraperitoneal (IP) dosing.
Following the completion of the six week period, the animals were euthanized at week 17 by lethal pentobarbital injection and tissues were removed from the animal. Upon removal of the tissues, endothelial function was assessed. It is known that endothelial function can refer to the unimpaired production of or availability of NO and/or a balance in the relative contribution of endothelium-derived relaxing and contracting factors (such as ET-1, angiotensin, and oxidants). […] As such, once the tissues were removed from the animals, endothelial cell function was assessed in the experimental groups by myography as percent-relaxation to acetylcholine or sodium nitroprusside subsequent to pre-contraction with 0.3 μM phenylephrine.

[5] = test system: inflammatory genes (ICAM1, IL-6, IL-1β, MCP1, TGF-β1, VCAM1, TNF-α); assay: inflammatory gene expression (mRNA transcript levels) in tissues after 6 weeks of treatment; type: in vivo, rat; details: 50 mg/kg daily IP
Description: as §1
Furthermore, inflammatory gene expression was assessed in the aorta, heart, brain and kidney by probing for mRNA transcript levels of the various inflammatory genes. Aortic and cardiac collagen synthesis was also assessed by Picrosirius Red staining and Massom-Trichrome staining and quantified by an automated thresholding program.

[6] = test system: spontaneously hypertensive stroke prone rats (SHRSP); assay: histology of organ sections (H&E wall thickness, CD68 staining) after 6 weeks of treatment; type: in vivo, rat; details: 50 mg/kg daily IP
Description: as §1
Additionally, four to eight sections of each organ were stained with CD68 or H&E for 10 animals (5 in each group) and images were obtained at 200× by bright-field microscopy. MetaMorph software was used for automated thresholding. The percentage of thresholded area of the picture was recorded and reported. Additionally, about 12 organ sections per rat were prepared for 10 of the rats (5 in each group). These sections were 5 microns in size and were stained with hematoxylin and eosin (H&E). Images were obtained at 40× (using bright-field microscopy and analyzed using MetaMorph software. For each image, the external elastic lamina of the aorta was traced using a drawing tool, and this area was logged. The luminal area was also measured. Thus, the tunica intima and tunica media were included in these measurements, not tunica adventitia. The wall thickness was calculated by subtracting the luminal area from the wall area.

Chain of Angiotensin Converting Enzyme (ACE) (P12822 whole entry): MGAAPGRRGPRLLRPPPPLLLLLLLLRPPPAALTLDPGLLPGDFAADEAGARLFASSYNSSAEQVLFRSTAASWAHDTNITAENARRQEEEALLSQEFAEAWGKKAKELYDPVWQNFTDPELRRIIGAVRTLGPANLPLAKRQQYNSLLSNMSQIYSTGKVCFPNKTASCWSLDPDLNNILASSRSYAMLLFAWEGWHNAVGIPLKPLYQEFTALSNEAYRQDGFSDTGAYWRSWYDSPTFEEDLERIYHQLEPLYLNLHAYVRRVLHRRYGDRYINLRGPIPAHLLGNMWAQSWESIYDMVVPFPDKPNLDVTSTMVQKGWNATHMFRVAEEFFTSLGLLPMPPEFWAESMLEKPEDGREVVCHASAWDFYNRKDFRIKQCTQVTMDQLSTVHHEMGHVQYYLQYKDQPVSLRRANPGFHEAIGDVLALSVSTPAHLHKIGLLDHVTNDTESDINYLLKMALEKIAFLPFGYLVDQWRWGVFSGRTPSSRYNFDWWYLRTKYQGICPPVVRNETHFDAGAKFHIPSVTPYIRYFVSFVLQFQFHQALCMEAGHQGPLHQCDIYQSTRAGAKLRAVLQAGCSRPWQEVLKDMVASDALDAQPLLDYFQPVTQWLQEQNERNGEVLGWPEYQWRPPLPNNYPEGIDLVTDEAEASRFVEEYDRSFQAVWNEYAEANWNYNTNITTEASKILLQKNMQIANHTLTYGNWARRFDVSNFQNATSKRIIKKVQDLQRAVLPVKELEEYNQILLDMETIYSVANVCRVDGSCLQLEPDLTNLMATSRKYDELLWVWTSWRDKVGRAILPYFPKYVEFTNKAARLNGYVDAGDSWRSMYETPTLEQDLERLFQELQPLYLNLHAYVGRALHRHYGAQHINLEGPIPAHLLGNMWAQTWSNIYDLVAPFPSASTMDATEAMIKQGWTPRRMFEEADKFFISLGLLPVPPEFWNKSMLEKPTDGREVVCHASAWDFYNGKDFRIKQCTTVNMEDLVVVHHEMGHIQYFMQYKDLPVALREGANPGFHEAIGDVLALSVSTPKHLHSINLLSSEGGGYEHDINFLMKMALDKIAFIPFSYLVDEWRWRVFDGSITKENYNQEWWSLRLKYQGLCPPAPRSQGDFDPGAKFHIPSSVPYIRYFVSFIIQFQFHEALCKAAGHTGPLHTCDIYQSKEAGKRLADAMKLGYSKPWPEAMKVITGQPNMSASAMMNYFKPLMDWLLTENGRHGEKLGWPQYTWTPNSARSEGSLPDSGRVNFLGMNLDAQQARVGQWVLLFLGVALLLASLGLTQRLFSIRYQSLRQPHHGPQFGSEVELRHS

O=C(O)C1CCCN1C(=O)CCCCC(S)CCS (stereo not drawn)
reduction of ACE activity (formation of L-histidyl-L-leucine) [1]: effectively reduce ACE activity
pIC50 ([1]; corrected for thiol content by Ellman's method, read-out: IC50 value recalculated after thiol quantification): 5.18
pIC50 ([1]; from plot of fluorescence counts against concentration (FIG. 13), read-out: IC50 value, initially found): ~4.54

O=C(O)CCCCC1CCSS1 (stereo not drawn) [lipoic acid, alpha lipoic acid, reference compound]
relaxation of pre-constricted rat aortic segments ([2]; 1×10^−4 M): relaxed pre-constricted rat aortic segments

O=C(O)C1CCCN1C(=O)CCCCC1CCSS1 [prolyl lipoic acid, L-prolyl lipoic acid]
reduction of ACE activity (formation of L-histidyl-L-leucine) [1]: effectively reduce ACE activity
relaxation of pre-constricted rat aortic segments ([2]; 1×10^−4 M): relaxed pre-constricted rat aortic segments
relaxation as compared to lipoic acid ([2]; 1×10^−4 M, same aortic ring test (FIG. 15)): increase in relaxation as compared to lipoic acid
endothelial function in aortic rings (vasodilation following acetylcholine) ([2]; rings pre-constricted to EC50 of phenylephrine, acetylcholine 10^−5M): improve endothelial function
blood pressure after a single dose ([3]; 50 mg/kg single dose, 12 hours after versus previous 12 hour period): significantly reduced blood pressure
effects on blood pressure relative to captopril ([3]; 50 mg/kg versus captopril 100 mg/kg (FIG. 20)): comparable to the angiotensin converting enzyme inhibitor, captopril
blood pressure, acute administration ([3]; 50 mg/kg, SHRSP rats, FIGS. 18-19): acutely lowered blood pressure
endothelial function (relaxation to acetylcholine or sodium nitroprusside) [4]: improved endothelial function
inflammatory gene expression in aorta ([5]; aorta): markedly reduced inflammatory gene expression
ICAM1 expression in brain ([5]; brain): some reductions in expression
IL-6 expression in brain ([5]; brain): some reductions in expression
reduction in inflammatory gene expression in brain ([5]; brain, compared with other tissues): not as pronounced
inflammatory gene expression in heart ([5]; heart): markedly reduced inflammatory gene expression
inflammatory gene expression in kidney ([5]; kidney): markedly reduced inflammatory gene expression
CD68 expression in the brain [6]: without affecting CD68 expression
CD68 expression in the kidneys [6]: without affecting CD68 expression
CD68 expression in the myocardium [6]: without affecting CD68 expression
inflammatory cell recruitment to the heart [6]: favorable effects
inflammatory cell recruitment to the kidney [6]: favorable effects
aortic medial hypertrophy ([6]; H&E sections): effects in reducing aortic medial hypertrophy
